Test [1] deals with T1, Dihydrofolate reductase (Mycobacterium avium, UniProt O30463).
T1 sequence (O30463 whole entry): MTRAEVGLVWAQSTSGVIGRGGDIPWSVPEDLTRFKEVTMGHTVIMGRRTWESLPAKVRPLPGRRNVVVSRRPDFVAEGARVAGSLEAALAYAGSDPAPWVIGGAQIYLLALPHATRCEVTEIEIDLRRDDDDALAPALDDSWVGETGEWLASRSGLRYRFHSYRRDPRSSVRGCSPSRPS
Description: Inhibition of Mycobacterium avium DHFR

Test [2] has as its target T2, Dihydrofolate reductase (Rattus norvegicus, UniProt Q920D2).
T2 sequence (Q920D2 whole entry): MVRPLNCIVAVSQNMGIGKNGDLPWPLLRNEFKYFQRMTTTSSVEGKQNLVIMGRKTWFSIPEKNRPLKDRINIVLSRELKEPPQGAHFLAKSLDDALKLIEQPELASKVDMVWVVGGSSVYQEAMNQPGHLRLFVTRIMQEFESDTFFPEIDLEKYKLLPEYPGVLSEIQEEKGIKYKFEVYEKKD
Description: Inhibition of rat liver DHFR

A short description of test [3]: Inhibition of Escherichia coli DHFR.
A short description of test [4]: Selectivity ratio of IC50 for rat liver DHFR to IC50 for Pneumocystis carinii DHFR.
A short description of test [5]: Selectivity ratio of IC50 for rat liver DHFR to IC50 for Mycobacterium avium DHFR.
Test [6] concerns the target T3, Dihydrofolate reductase (Pneumocystis carinii, UniProt P16184).
T3 sequence (P16184 whole entry): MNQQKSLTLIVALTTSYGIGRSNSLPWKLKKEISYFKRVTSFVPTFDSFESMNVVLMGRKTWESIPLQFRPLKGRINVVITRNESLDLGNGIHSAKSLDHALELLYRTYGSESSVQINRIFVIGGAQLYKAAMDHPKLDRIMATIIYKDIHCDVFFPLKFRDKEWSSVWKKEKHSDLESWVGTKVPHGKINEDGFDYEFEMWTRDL
Description: Inhibition of Pneumocystis carinii DHFR

The target in test [7] is T4, Dihydrofolate reductase (Homo sapiens, UniProt P00374).
Test [8] deals with T5, Bifunctional dihydrofolate reductase-thymidylate synthase (Toxoplasma gondii, UniProt Q07422).
T5 sequence (Q07422 whole entry): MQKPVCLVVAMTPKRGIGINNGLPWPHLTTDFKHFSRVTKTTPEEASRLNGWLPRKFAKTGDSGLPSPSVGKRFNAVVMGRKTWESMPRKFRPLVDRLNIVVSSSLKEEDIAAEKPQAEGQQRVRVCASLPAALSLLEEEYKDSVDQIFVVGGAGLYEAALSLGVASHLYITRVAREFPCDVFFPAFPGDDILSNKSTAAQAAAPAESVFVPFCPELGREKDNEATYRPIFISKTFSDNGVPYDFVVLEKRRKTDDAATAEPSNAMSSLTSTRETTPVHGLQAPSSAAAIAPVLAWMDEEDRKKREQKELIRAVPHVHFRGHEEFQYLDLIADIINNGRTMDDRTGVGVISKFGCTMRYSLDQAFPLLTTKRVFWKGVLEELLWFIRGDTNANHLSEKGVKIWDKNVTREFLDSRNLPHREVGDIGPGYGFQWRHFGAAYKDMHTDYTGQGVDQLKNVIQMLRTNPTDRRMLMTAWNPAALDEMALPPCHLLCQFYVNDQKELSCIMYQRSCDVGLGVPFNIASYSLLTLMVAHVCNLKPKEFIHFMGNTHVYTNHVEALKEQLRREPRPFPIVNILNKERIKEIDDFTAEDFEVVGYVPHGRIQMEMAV
Description: Inhibition of Toxoplasma gondii DHFR

The nature of test [9]: Selectivity ratio of IC50 for human DHFR to IC50 for Escherichia coli DHFR.
The subject of a further test is RPMI-8226. Kind of test: Cytotoxicity against RPMI8226 cells. Type of test: functional. As to conditions: Homo sapiens.
The subject of the next test is MOLT-4. Kind of test: Cytotoxicity against MOLT4 cells. Type of test: functional. The conditions noted are these: Homo sapiens.
Another test concerns NCI-H460. Kind of test: Cytotoxicity against NCI-H460 cells. Type of test: functional. As to conditions: Homo sapiens.
The subject of the next test is SW-620. Kind of test: Cytotoxicity against SW620 cells. The class given is functional. The conditions noted are these: Homo sapiens.
The next test deals with U-251. Kind of test: Cytotoxicity against U251 cells. Type of test: functional. The conditions noted are these: Homo sapiens.
A further test has as its system K562. Kind of test: Cytotoxicity against K562 cells. Type of test: functional. The conditions noted are these: Homo sapiens.
The next test relates to LOX IMVI. Kind of test: Cytotoxicity against LOX IMVI cells. Type of test: functional. As to conditions: Homo sapiens.
A further test concerns PC-3. Kind of test: Cytotoxicity against PC3 cells. Type of test: functional. The conditions noted are these: Homo sapiens.
In a further test the test system is SR. Kind of test: Cytotoxicity against SR cells. The class given is functional. As to conditions: Homo sapiens.
Test [10] relates to CCRF-CEM. Kind of test: Cytotoxicity against CCRF-CEM cells. The class given is functional. The conditions noted are these: Homo sapiens.
A further test relates to HT-29. Kind of test: Cytotoxicity against HT29 cells. Type of test: functional. The conditions noted are these: Homo sapiens.
In test [11] the target is T4, Dihydrofolate reductase. Kind of test: Inhibition of human DHFR relative to control. As to conditions: concentration not given here.
The subject of test [12] is CCRF-CEM. Kind of test: Effect on growth of human CCRF-CEM cells at 40 nM in presence of 10 uM deoxycytidine, 5 uM thymidine and 10 uM hypoxanthine relative to control. The class given is functional.
Test [13] relates to CCRF-CEM. Kind of test: Effect on growth of human CCRF-CEM cells at 40 nM in presence of 10 uM deoxycytidine, 5 uM thymidine relative to control. The class given is functional.
In test [14] the test system is CCRF-CEM. Kind of test: Effect on growth of human CCRF-CEM cells at 40 nM in presence of 10 uM deoxycytidine relative to control. The class given is functional.
For test [15], the system named is CCRF-CEM. Kind of test: Effect on growth of human CCRF-CEM cells at 40 nM in presence of 10 uM deoxycytidine, 10 uM hypoxanthine relative to control. The class given is functional.
In test [16] the target is Dihydrofolate reductase (Pneumocystis carinii) (UniProt P16184). The conditions noted are these: 20 uM.
Description: Inhibition of Pneumocystis carinii DHFR at 20 uM

These results are taken from ChEMBL document CHEMBL1145401, “Design and synthesis of classical and nonclassical 6-arylthio-2,4-diamino-5-ethylpyrrolo[2,3-d]pyrimidines as antifolates” (J Med Chem, 2007).

pIC50: −log10 of the molar value. Some results are limits rather than exact numbers.

For the compound `COc1ccc(Sc2[nH]c3nc(N)nc(N)c3c2C)cc1`, the pIC50 (usually −log10 of the IC50, conventionally taken in molar units) against Dihydrofolate reductase [1] is 6.16.

Take `CCc1c(Sc2ccc(Cl)cc2Cl)[nH]c2nc(N)nc(N)c12`: the pIC50 against Dihydrofolate reductase [2] was 5.93; in test [3], 6.85; against Dihydrofolate reductase [6], 5.14; against Dihydrofolate reductase [7], 5.85; at Dihydrofolate reductase [1] it was 6.46; in test [8], 6.66. Further, the Ratio IC50 in [4] is 0.2; in [5], 3.3; in test [9] it was 10.

In the case of `CCc1c(Sc2cccc3ccccc23)[nH]c2nc(N)nc(N)c12`, the pIC50 at Dihydrofolate reductase [2] is 4.40; on Dihydrofolate reductase [6], 4.74; against Dihydrofolate reductase [7] it was 5.54; at Dihydrofolate reductase [1], 4.70; in test [8] it was 5.50.

Consider `Cc1nc(N)c2c(C)c(Sc3ccc(C(=O)N[C@@H](CCC(=O)O)C(=O)O)cc3)[nH]c2n1`, for which the GI50 (in general, the concentration that inhibits growth by half) in the test with RPMI-8226 is below 10 nM; in the test with MOLT-4 it was below 10 nM; in the test with NCI-H460, 630 nM; in the test on SW-620, 120 nM; with U-251, 820 nM; in the test with K562, 27 nM. In addition, the GI50 with LOX IMVI is 170 nM; in the test on PC-3 it was 440 nM; in the test with SR, above 100 nM; in the test with CCRF-CEM [10], 220 nM; with HT-29, 160 nM.

As for `CCc1c(Sc2c(Cl)cccc2Cl)[nH]c2nc(N)nc(N)c12`, the pIC50 at Dihydrofolate reductase [2] was 5.40; against Dihydrofolate reductase [6], 4.69; on Dihydrofolate reductase [7], below 4.55; against Dihydrofolate reductase [1], 4.92; in test [8], 5.42. Also, the values for the Ratio IC50 in [4] and in test [5] were 0.2 and 0.33, respectively. The inhibition (as a rule, the drop in the measured response relative to a control, in per cent) against Dihydrofolate reductase [11] stood at 30%.

On to `CN(Cc1cnc2nc(N)nc(N)c2n1)c1ccc(C(=O)N[C@@H](CCC(=O)O)C(=O)O)cc1` [METHOTREXATE], for which the Activity in the test with CCRF-CEM [12] is given as 74%; in the test on CCRF-CEM [13], 13%; in the test with CCRF-CEM [14], 11%; with CCRF-CEM [15] it was 14%.

As to `CCc1c(Sc2cc(OC)ccc2OC)[nH]c2nc(N)nc(N)c12`, the pIC50 was 5.24 against Dihydrofolate reductase [7] and 6.92 in test [8].

For `CCc1c(Sc2ccc(OC)cc2)[nH]c2nc(N)nc(N)c12`, the pIC50 against Dihydrofolate reductase [2] is 4.50; at Dihydrofolate reductase [6] it was 4.28; against Dihydrofolate reductase [7] it was 5.54; against Dihydrofolate reductase [1], 5.51; in [8], 5.34.

With `CCc1c(Sc2cccc(OC)c2)[nH]c2nc(N)nc(N)c12`, the pIC50 against Dihydrofolate reductase [2] is 4.51; in test [3], 6.49; on Dihydrofolate reductase [6], 4.55; on Dihydrofolate reductase [7], below 4.49; at Dihydrofolate reductase [1] it was 6.11; in test [8] it was 5.96. The Ratio IC50 was 1.1 in [4], 40.5 in [5] and above 100 in test [9]. At Dihydrofolate reductase [11], this compound registered an inhibition of 35%.

Regarding `CCc1c(Sc2ccc(Br)cc2)[nH]c2nc(N)nc(N)c12`, the pIC50 at Dihydrofolate reductase [2] is 5.00; in test [3], 6.85; at Dihydrofolate reductase [6] it was 4.58; at Dihydrofolate reductase [7], 5.57; at Dihydrofolate reductase [1] it was 5.13; in test [8], 4.94. The figures for the Ratio IC50 in test [4], in [5] and in test [9] were 0.4, 1.4 and 19.3, respectively.

Consider `Cc1c(Sc2ccc3ccccc3c2)[nH]c2nc(N)nc(N)c12`, for which the Ratio IC50 was determined as 0.1 in test [4] and 6.5 in [5]. Further, the pIC50 against Dihydrofolate reductase [1] is 6.15; in test [8], 6.80.

For the compound `CCc1c(Sc2c(C)cccc2C)[nH]c2nc(N)nc(N)c12`, the pIC50 against Dihydrofolate reductase [2] was 5.00; at Dihydrofolate reductase [6] it was 4.52; on Dihydrofolate reductase [1], 4.74; in test [8] it was 5.15.

For `CCc1c(Sc2ccccc2)[nH]c2nc(N)nc(N)c12`, the results for the negative-log IC50 (pIC50) (at Dihydrofolate reductase [7]; in test [8]) were 4.74 and 6.74, respectively.

As for `CCc1c(Sc2ccc([N+](=O)[O-])cc2)[nH]c2nc(N)nc(N)c12`, the pIC50 at Dihydrofolate reductase [2] was 5.49; in [3], 7.05; against Dihydrofolate reductase [6], 5.06; against Dihydrofolate reductase [7], 5.24; against Dihydrofolate reductase [1], 6.43; in [8] it was 6.49. Also, the Ratio IC50 in test [4] came to 0.4; in test [5] it was 8.6; in test [9] it was 64.4.

As for `CCc1c(Sc2cccc(Cl)c2)[nH]c2nc(N)nc(N)c12`, the pIC50 was 5.20 on Dihydrofolate reductase [2]; 6.80 in test [3]; 5.40 against Dihydrofolate reductase [6]; below 4.51 at Dihydrofolate reductase [7]; 6.38 on Dihydrofolate reductase [1]; 6.30 in [8]. Also, the Ratio IC50 in [4] is 1.6; in test [5], 15.1; in test [9], above 194. Also, the inhibition against Dihydrofolate reductase [11] was 30%.

Turning to `CCc1c(Sc2ccc(Cl)cc2)[nH]c2nc(N)nc(N)c12`, the pIC50 was 5.26 on Dihydrofolate reductase [2]; 4.92 on Dihydrofolate reductase [6]; below 4.51 at Dihydrofolate reductase [7]; 6.15 against Dihydrofolate reductase [1]; 5.81 in [8]. Also, the Ratio IC50 came to 0.5 in test [4] and 7.8 in test [5]. In addition, the inhibition on Dihydrofolate reductase [11] turned out to be 36%.

As to `Cc1c(Sc2ccc(Cl)c(Cl)c2)[nH]c2nc(N)nc(N)c12`, the pIC50 was 3.96 on Dihydrofolate reductase [2], 4.72 against Dihydrofolate reductase [1] and 4.70 in test [8]. Also, the Ratio IC50 in test [4] is 9.1; in [5], 5.8. The compound also had an inhibition in test [16] of 14%.

For `CCc1c(Sc2cccc3cccnc23)[nH]c2nc(N)nc(N)c12`, the pIC50 against Dihydrofolate reductase [2] is 5.45; against Dihydrofolate reductase [6], 5.02; against Dihydrofolate reductase [7] it was 5.85; against Dihydrofolate reductase [1], 6.96.

Regarding `CCc1c(Sc2ccc3ccccc3c2)[nH]c2nc(N)nc(N)c12`, the pIC50 was 5.06 against Dihydrofolate reductase [2]; 4.86 on Dihydrofolate reductase [6]; 5.22 against Dihydrofolate reductase [7]; 5.19 against Dihydrofolate reductase [1]; 5.29 in [8].
